Article PMC9500038, “A fungal tolerance trait and selective inhibitors proffer HMG-CoA reductase as a herbicide mode-of-action” (Nature Communications, 2022)
“Also recorded” adds a separate entry of the source.

Assays:
AtHMG1 = biological target: T1, AtHMG1 (Arabidopsis thaliana, UniProt P14891); assay: biochemical; assay type: biochemical; conditions: for selectivity for AtHMG1 in vitro (dose-response): inhibition profiles AtHMG1 versus HsHMGCR; for IC50: wild-type AtHMG1, in vitro
T1 construct: AtHMG1 (Uniprot P14891, At1g76490, residues 121–592); His6 (N); TEV cleavage site (N); made in house; host or cells: E. coli T7 SHuffle Express
Method: An E. coli codon-optimised DNA sequence encoding the conserved […] region of AtHMG1 (Uniprot P14891, At1g76490, residues 121–592) was cloned into pQE30 (Qiagen) following an N-terminal His6-tag and tobacco etch virus cleavage site. The protein was expressed in the T7 SHuffle Express strain of E. coli (New England Biolabs) transformed with pREP4 (Qiagen) with the proteins expressed and purified as previously described. Briefly, cultures were grown in lysogeny broth containing 100 μg/mL ampicillin and 35 μg/mL kanamycin at 30 °C to an OD600 of 0.8–1.0. Cells were cooled to 16 °C before the expression was induced with 0.1 mM isopropyl β-D-1-thiogalactopyranoside. Following overnight culture, cells were harvested by centrifugation and lysed by ultrasonication in 100 mM HEPES (pH 7.5), 150 mM sodium chloride, 5 mM dithiothreitol, 0.1% Triton X-100. Lysed cells were then centrifuged (15,000×g) and the supernatant was incubated in 30 mL batches with Ni-NTA resin overnight at 4 °C. The resin was then washed with 50 mL of 100 mM HEPES (pH 7.5), 150 mM sodium chloride, 5 mM dithiothreitol followed by 50 mL of 100 mM HEPES (pH 7.5), 150 mM sodium chloride, 5 mM dithiothreitol, 20 mM imidazole. The protein was then eluted with 50 mL of 100 mM HEPES (pH 7.5), 150 mM sodium chloride, 5 mM dithiothreitol, 300 mM imidazole. Eluted protein was concentrated with a 30 kDa centrifugal filter unit (Millipore) and purified by size-exclusion chromatography (HiLoad 16/600 Superdex 200) in 100 mM HEPES (pH 7.5), 150 mM sodium chloride, 5 mM dithiothreitol. The protein was assessed for purity by SDS-PAGE, and protein concentration was determined by spectrophotometry.
(§1) AtHMG1 described above and human HMGR (HsHMGCR, Uniprot P04035, residues 441–888, cloned as above) were purified as above, and activity was determined by spectrophotometric measurement of the decrease in absorbance at 340 nm that occurs with NADPH oxidation in the presence of substrate HMG-CoA (Sigma-Aldrich). Reactions were performed with an assay buffer consisting of 150 mM sodium chloride, 5 mM dithiothreitol, 50 mM HEPES pH 7.4 and 2% DMSO. For kinetics determinations, a final concentration of 150 nM enzyme was incubated at 37 °C in 300 μM NADPH and different concentrations of HMG-CoA. Non-linear regression analysis was performed with GraphPad Prism 9 by plotting the initial reaction rates, v0, interpolated from a standard curve against the substrate concentration. The Michaelis–Menten constant, Km, was determined by fitting the data with a Michaelis–Menten equation and values for kcat were calculated by dividing Vmax by the molar enzyme concentration. To calculate relative specific activity, 500 nM of test compounds were pre-incubated at 37 °C with enzyme and 300 μM NADPH for 15 min before adding HMG-CoA to 200 μM. Resultant values were background subtracted and normalised to the average of the no-inhibitor control. For IC50 determinations, the same protocol was used, but varying inhibitor concentrations. Rosuvastatin data were plotted with a four-parameter (WT), and normalised response (L558T) non-linear regression model and atorvastatin and analogues were plotted with a normalised response with variable slope non-linear regression model.

AtHMG1-L558T = biological target: T2, AtHMG1-L558T (Arabidopsis thaliana, UniProt P14891, L558T); assay: biochemical; assay type: biochemical; conditions: for AtHMG1-L558T activity in the presence of statin: 500 nM, in comparison to wild-type
T2 construct: AtHMG1 (Uniprot P14891, At1g76490, residues 121–592); His6 (N); TEV cleavage site (N); made in house; host or cells: E. coli T7 SHuffle Express
Method: as §1

[1] = test system: wild-type (WT) A. thaliana; assay: In planta statin resistance assay, non-transformed WT; assay type: in vivo; conditions: Arabidopsis thaliana; growth medium, green pixels; read-out: IC50 growth inhibition, non-transformed WT
Method: (§2) DNA encoding the full-length AtHMG1 protein (Uniprot P14891, residues 1–592) and the corresponding L558T mutant were cloned into a derivative of the pMDC43 binary vector[75] to yield 35 S::AtHMG1 and 35 S::AtHMG1-L558T transgenes, respectively. These constructs were then introduced into Agrobacterium tumefaciens strain LBA4404 and separately used to transform A. thaliana by the floral dip method[76],[77]. Seeds (T0/1) of transformed plants were collected and surface sterilised using 600 µL 70% ethanol, 750 µL 100% ethanol and soaked in 800 µL 50% bleach for 8 min, before washing with 800 µL sterile water and resuspension with 0.1% agar. Selection was performed on 30 µg/mL hygromycin growth medium (1% agar, 1% glucose, 0.45% Murashige & Skoog salts with vitamins, 0.3% 2-(N-morpholino)-ethanesulfonic acid (MES) (v/v), pH 5.7) in a growth room at 22 °C with 16:8 h light:dark photoperiod and 60% relative humidity. Surviving plants were transferred to 63 ×63 × 59 mm pots of Irish peat and grown to maturity in the same growth conditions. Seeds from plants with an adequate seed yield were then sterilised and selected again as described above with 30 µg/mL hygromycin growth medium. […] Plates were sealed with porous tape and grown for a minimum of 10 days with the growth conditions described above. Plates were then imaged, and growth quantified using ImageJ as described above. […]

[2] = test system: 35 S::AtHMG1-L558T A. thaliana lines; assay type: in vivo, Arabidopsis thaliana
Method: DNA encoding the full-length AtHMG1 protein (Uniprot P14891, residues 1–592) and the corresponding L558T mutant were cloned into a derivative of the pMDC43 binary vector[75] to yield 35 S::AtHMG1 and 35 S::AtHMG1-L558T transgenes, respectively. These constructs were then introduced into Agrobacterium tumefaciens strain LBA4404 and separately used to transform A. thaliana by the floral dip method[76],[77]. Seeds (T0/1) of transformed plants were collected and surface sterilised using 600 µL 70% ethanol, 750 µL 100% ethanol and soaked in 800 µL 50% bleach for 8 min, before washing with 800 µL sterile water and resuspension with 0.1% agar. Selection was performed on 30 µg/mL hygromycin growth medium (1% agar, 1% glucose, 0.45% Murashige & Skoog salts with vitamins, 0.3% 2-(N-morpholino)-ethanesulfonic acid (MES) (v/v), pH 5.7) in a growth room at 22 °C with 16:8 h light:dark photoperiod and 60% relative humidity. Surviving plants were transferred to 63 ×63 × 59 mm pots of Irish peat and grown to maturity in the same growth conditions. Seeds from plants with an adequate seed yield were then sterilised and selected again as described above with 30 µg/mL hygromycin growth medium. […] Plates were sealed with porous tape and grown for a minimum of 10 days with the growth conditions described above. Plates were then imaged, and growth quantified using ImageJ as described above. Total green pixels were normalised against negative controls for the respective lines (2% DMSO and water) to provide percentage inhibition. […] Growth inhibition at varying concentrations of hygromycin and rosuvastatin were plotted with a four-parameter non-linear regression model using GraphPad Prism 9.

A. thaliana = assay: Herbicidal activity assay on soil, pre- and post-emergence; assay type: in vivo, Arabidopsis thaliana; conditions: for herbicidal activity: pre- and post-emergence
Method: Approximately 30 seeds of A. thaliana (accession Col-0) or E. tef were sown in 63 × 63 × 59 mm pots of Irish peat (Bord na Móna Horticulture Ltd, Newbridge, Ireland). Seeds were incubated in the dark for 3 days at 4 °C to synchronise germination. A single pre-emergence treatment (day 0) was performed when these seeds were transferred to a growth room at 22 °C with a 16:8 h light:dark photoperiod and 60% relative humidity. Two post-emergence treatments were performed following emergence of the seedlings (day 1) at days 4 and 7. Plants were watered accordingly throughout the experiment to maintain adequate moisture and photographed on day 16. Treatments were conducted with rosuvastatin, simvastatin, fluvastatin, atorvastatin (AK Scientific), pravastatin (BOC Sciences), lovastatin (Sapphire Bioscience), mevastatin, pitavastatin (Focus Bioscience), glyphosate, RoundUp® and atorvastatin analogues (1–9). To treat, 0.5 mL of each compound in a final concentration of 2% dimethyl sulfoxide (DMSO) and 0.02% Brushwet (SST Dandenong, Australia) was pipetted onto seedlings. Full experimental details and characterisation of atorvastatin analogue 1–9 synthesis can be found in Supplementary Method 1 and Supplementary Figs. 7–62. Growth inhibition was quantified by detecting green pixels for healthy seedlings using ImageJ (National Institutes of Health, 1.53 v) and the ‘Threshold Colour’ plug-in with the following settings: hue 50–110, saturation 125–255, brightness 30–255[67]. Images were converted into 8-bit format, and pixels measured over the same area. Data were normalised to a negative control to provide percentage inhibition.

[3] = test system: 35 S::AtHMG1 A. thaliana lines; assay: In planta statin resistance assay, 35 S::AtHMG1 lines; assay type: in vivo; conditions: Arabidopsis thaliana; 19 T2 lines combined; read-out: IC50 growth inhibition, 35 S::AtHMG1 lines
Method: as §2

HsHMGCR = biological target: T3, HsHMGCR (Homo sapiens, UniProt P04035); assay: In vitro HMGR assay (NADPH depletion), HsHMGCR; assay type: biochemical
T3 construct: HsHMGCR, Uniprot P04035, residues 441–888; His6 (N); TEV cleavage site (N); made in house; host or cells: E. coli T7 SHuffle Express (by 'cloned as above ... purified as above')
T3 sequence (P04035 441-888): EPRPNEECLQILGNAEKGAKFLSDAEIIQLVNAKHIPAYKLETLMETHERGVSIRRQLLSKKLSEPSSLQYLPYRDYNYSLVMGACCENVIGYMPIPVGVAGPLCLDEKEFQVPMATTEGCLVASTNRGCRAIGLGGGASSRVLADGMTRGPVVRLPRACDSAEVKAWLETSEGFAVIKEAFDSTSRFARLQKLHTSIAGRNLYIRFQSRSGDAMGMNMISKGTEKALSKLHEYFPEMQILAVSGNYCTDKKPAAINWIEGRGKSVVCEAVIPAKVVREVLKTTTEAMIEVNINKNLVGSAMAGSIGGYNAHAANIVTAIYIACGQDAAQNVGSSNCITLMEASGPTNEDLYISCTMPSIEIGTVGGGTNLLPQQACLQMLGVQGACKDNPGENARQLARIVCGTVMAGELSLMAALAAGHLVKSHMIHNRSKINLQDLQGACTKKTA
Method: as §1, with “Rosuvastatin data were plotted with a four-parameter (WT), and normalised response (L558T) non-linear regression model and atorvastatin and analogues were plotted with a normalised response with variable slope non-linear regression model.” left out

T1 sequence (P14891 121-592): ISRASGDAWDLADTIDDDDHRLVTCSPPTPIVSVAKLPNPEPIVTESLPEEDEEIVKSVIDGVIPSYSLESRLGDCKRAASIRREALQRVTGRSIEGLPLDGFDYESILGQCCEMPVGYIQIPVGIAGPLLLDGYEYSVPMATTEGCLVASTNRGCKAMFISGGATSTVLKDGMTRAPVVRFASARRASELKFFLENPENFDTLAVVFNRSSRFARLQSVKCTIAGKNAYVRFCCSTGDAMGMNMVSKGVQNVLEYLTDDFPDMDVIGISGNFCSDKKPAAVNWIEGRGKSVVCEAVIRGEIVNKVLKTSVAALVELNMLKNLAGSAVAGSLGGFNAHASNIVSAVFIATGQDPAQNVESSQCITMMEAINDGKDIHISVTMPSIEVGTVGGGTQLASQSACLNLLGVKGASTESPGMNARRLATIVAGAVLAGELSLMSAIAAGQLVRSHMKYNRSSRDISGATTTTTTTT
T2 sequence (P14891 121-592 L558T): as the sequence (P14891 121-592) above, with L438T counted along it

Compound: O=C(O)C[C@H](O)C[C@H](O)CCn1c(-c2ccc(F)cc2)c(-c2ccccc2)c(C(=O)Nc2ccccc2)c1C1CCCC1 [compound 8]
- selectivity for AtHMG1 in vitro (dose-response) (AtHMG1): not selective

Compound: CC[C@H](C)C(=O)O[C@H]1C[C@@H](C)C=C2C=C[C@H](C)[C@H](CC[C@@H]3C[C@@H](O)CC(=O)O3)[C@H]21 [lovastatin]
- AtHMG1-L558T activity in the presence of statin (AtHMG1-L558T): retained activity

Compound: CC(C)n1c(/C=C/C(O)CC(O)CC(=O)O)c(-c2ccc(F)cc2)c2ccccc21 (stereo not shown) [fluvastatin]
- AtHMG1-L558T activity in the presence of statin (AtHMG1-L558T): retained activity

Compound: CC[C@H](C)C(=O)O[C@H]1C[C@H](O)C=C2C=C[C@H](C)[C@H](CC[C@@H](O)C[C@@H](O)CC(=O)O)[C@H]21 [pravastatin]
- AtHMG1-L558T activity in the presence of statin (AtHMG1-L558T): retained activity

Compound: CC[C@H](C)C(=O)O[C@H]1CCC=C2C=C[C@H](C)[C@H](CC[C@@H]3C[C@@H](O)CC(=O)O3)[C@H]21 [mevastatin]
- AtHMG1-L558T activity in the presence of statin (AtHMG1-L558T): retained activity

Compound: CC(C)c1nc(N(C)S(C)(=O)=O)nc(-c2ccc(F)cc2)c1/C=C/[C@@H](O)C[C@@H](O)CC(=O)O [rosuvastatin]
- IC50 [1]: 3000 nM
- IC50 (AtHMG1-L558T): > 1000 nM
- AtHMG1-L558T activity in the presence of statin (AtHMG1-L558T): retained activity
- resistance of AtHMG1-L558T versus WT in vitro (AtHMG1-L558T; in vitro): > 20 fold
- IC50 (AtHMG1): 53 nM
- 35 S::AtHMG1-L558T lines less sensitive to treatment than 35 S::AtHMG1 lines ([2]; 80 µM versus 5 µM, compared to untreated WT): up to 16 fold
- resistance of 35 S::AtHMG1-L558T lines versus 35 S::AtHMG1 lines ([2]; in planta): over sixfold more resistant
- resistance of 35 S::AtHMG1-L558T lines versus non-transformed WT ([2]; in planta): more than 100 fold
- herbicidal activity (A. thaliana): most herbicidal statin
- concentration lethal to A. thaliana (A. thaliana; rosuvastatin without formulation beyond a wetting agent, Roundup formulated, same conditions): ~ 15 μM
- IC50 [3]: 46000 nM

Compound: CC(C)c1c(C(=O)Nc2ccccc2)c(-c2ccccc2)c(-c2ccc(F)cc2)n1CC[C@@H](O)C[C@@H](O)CC(=O)O [atorvastatin]
- AtHMG1-L558T activity in the presence of statin (AtHMG1-L558T): retained activity
- selectivity for AtHMG1 in vitro (dose-response) (AtHMG1): not selective

Compound: CCC(C)(C)C(=O)O[C@H]1C[C@@H](C)C=C2C=C[C@H](C)[C@H](CC[C@@H]3C[C@@H](O)CC(=O)O3)[C@H]21 [simvastatin]
- AtHMG1-L558T activity in the presence of statin (AtHMG1-L558T): retained activity

Compound: O=C(O)C[C@H](O)C[C@H](O)CCn1c(-c2ccc(F)cc2)c(-c2ccccc2)c(C(=O)Nc2ccccc2)c1C1CCC1 [compound 7]
- specificity for AtHMG1 over HsHMGCR (AtHMG1; in vitro, from IC50 dose-response curves): > 20 fold
- selectivity in vitro for AtHMG1 over HsHMGCR (AtHMG1; initial screen at 500 nM): selective; also recorded: preference for AtHMG1 over HsHMGCR
- IC50 (AtHMG1): 32 nM
- herbicidal activity (A. thaliana): retained herbicidal activity
- IC50 (HsHMGCR): 890 nM

Compound: O=C(O)C[C@H](O)C[C@H](O)/C=C/c1c(C2CC2)nc2ccccc2c1-c1ccc(F)cc1 [pitavastatin]
- AtHMG1-L558T activity in the presence of statin (AtHMG1-L558T): retained activity
